Measured values: patent US8541462B2, “Tetrahydrocarbazole derivatives as ligands of G-protein coupled receptors” (AEterna Zentaris GmbH, priority 2007, dated 2013)

Target: T1, LHRH receptor (endogenous GnRH receptor of alpha T3-1 cell line) (Mus musculus, UniProt Q01776)
T1 construct: alpha T3-1 cell line with endogenous GnRH receptor expression; endogenous in cells; host or cells: alpha T3-1 cells (intact cell suspension)
T1 sequence (Q01776 1-327): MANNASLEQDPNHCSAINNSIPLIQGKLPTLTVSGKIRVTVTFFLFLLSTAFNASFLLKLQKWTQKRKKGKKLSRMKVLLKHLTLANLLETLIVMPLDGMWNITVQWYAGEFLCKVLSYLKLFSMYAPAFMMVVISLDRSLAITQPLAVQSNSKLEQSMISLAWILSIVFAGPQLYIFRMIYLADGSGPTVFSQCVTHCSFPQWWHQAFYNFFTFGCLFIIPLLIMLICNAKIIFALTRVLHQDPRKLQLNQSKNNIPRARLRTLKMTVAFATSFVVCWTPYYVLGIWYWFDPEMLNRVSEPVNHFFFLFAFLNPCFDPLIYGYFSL
Test: LHRH-receptor binding assay (displacement of [125I] cetrorelix on alpha T3-1 cells)
Conditions: WO 2006/005484-substance 75 = 100%
Experimental: For LHRH receptor binding studies, an assay system using alpha T3-1 cell line with endogenous GnRH receptor expression was employed (Windle et al., Mol. Endocrinol. 1990, 4(4): 597-603).
Iodinated cetrorelix was used as a tracer with about 80% of peptide capable of specific receptor association.
For displacement binding assays, the cells were incubated with approximately 200 pM [^125l] cetrorelix and different concentrations of unlabeled test compounds as competitor. The cell suspension in binding medium was layered on top of silicon/paraffin oil, incubated for 60 min at 37° C. and separated by centrifugation. The tips of the tubes containing the cell pellet were cut off, subsequently cell pellet and supernatant were analyzed by gamma-radiation analysis.
The amount of unspecific binding was determined by including unlabeled cetrorelix at 1 μM final concentration and was typically ≦10% of total binding. IC50 values were calculated by using the GraphPad Prism analysis program (GraphPad Software Inc.).

Structure (SMILES)	Normalized Affinity [%]
CCC(C)[C@H](NC(=O)Cc1ccccc1F)C(=O)N[C@]1(C(=O)N[C@H](C(=S)NCc2ccncc2)C(C)CC)CCc2[nH]c3c(C(F)(F)F)cccc3c2C1 (stereo partly drawn) [Compound 60, (R)-3-{(S)-2-[2-(2-Fluoro-phenyl)-acetylamino]-3-methyl-pentanoylamino}-8-trifluoromethyl-2,3,4,9-tetrahydro-1H-carbazole-3-carboxylic acid {(S)-2-methyl-1-[(pyridin-4-ylmethyl)-thiocarbamoyl]-butyl}-amide]	247
CCC(C)[C@H](NC(=O)Cc1ccccc1F)C(=O)N[C@]1(C(=O)N[C@H](C(=O)Nc2ccc(OC)c(O)c2)C(C)CC)CCc2[nH]c3c(C(F)(F)F)cccc3c2C1 (stereo partly drawn) [Compound 69, (R)-3-{(S)-2-[2-(2-Fluoro-phenyl)-acetylamino]-3-methyl-pentanoylamino}-8-trifluoromethyl-2,3,4,9-tetrahydro-1H-carbazole-3-carboxylic acid [(S)-1-(3-hydroxy-4-methoxy-phenylcarbamoyl)-2-methyl-butyl]-amide]	529
CCC(C)[C@H](NC(=O)Cc1ccccc1F)C(=O)N[C@]1(C(=O)N[C@H](C(=O)Nc2ccc(OC)cc2O)C(C)CC)CCc2[nH]c3c(C(F)(F)F)cccc3c2C1 (stereo partly drawn) [Compound 71, (R)-3-{(S)-2-[2-(2-Fluoro-phenyl)-acetylamino]-3-methyl-pentanoylamino}-8-trifluoromethyl-2,3,4,9-tetrahydro-1H-carbazole-3-carboxylic acid [(S)-1-(2-hydroxy-4-methoxy-phenylcarbarnoyl)-2-methyl-butyl]-amide]	411
CCC(C)[C@H](NC(=O)Cc1ccccc1F)C(=O)N[C@]1(C(=O)N[C@H](C(=S)NCCCn2ccnc2)C(C)CC)CCc2[nH]c3c(C(F)(F)F)cccc3c2C1 (stereo partly drawn) [Compound 74, (R)-3-{(S)-2-[2-(2-Fluoro-phenyl)-acetylamino]-3-methyl-pentanoylamino}-8-trifluoromethyl-2,3,4,9-tetrahydro-1H-carbazole-3-carboxylic acid [(S)-1-(3-imidazol-1-yl-propylthiocarbamoyl)-2-methyl-butyl]-amide]	247

The remaining lines, values ahead:

Normalized Affinity [%]	Structure (SMILES)
370	CCC(C)[C@H](NC(=O)Cc1ccccc1F)C(=O)N[C@]1(C(=O)N[C@H](C(=O)Nc2nnn(C(C)(C)C)n2)C(C)CC)CCc2[nH]c3c(C(F)(F)F)cccc3c2C1 (stereo partly drawn) [compound 178, (R)-3-{(S)-2-[2-(2-Fluoro-phenyl)-acetylamino]-3-methyl-pentanoylamino}-8-trifluoromethyl-2,3,4,9-tetrahydro-1H-carbazole-3-carboxylic acid [(S)-1-(2-tert-butyl-2H-tetrazol-5-ylcarbamoyl)-2-methyl-butyl]-amide]
285	CCC(C)[C@H](NC(=O)Cc1ccccc1F)C(=O)N[C@]1(C(=O)N[C@H](C(=S)NCc2nnc(C)o2)C(C)CC)CCc2[nH]c3c(C(F)(F)F)cccc3c2C1 (stereo partly drawn) [compound 118, (R)-3-{(S)-2-[2-(2-Fluoro-phenyl)-acetylamino]-3-methyl-pentanoylamino}-8-trifluoromethyl-2,3,4,9-tetrahydro-1H-carbazole-3-carboxylic acid {(S)-2-methyl-1-[(5-methyl-[1,3,4]oxadiazol-2-ylmethyl)-thiocarbamoyl]-butyl}-amide]

System: not listed separately
Test: Metabolic stability testing in liver microsomes
Type: in vitro ADME
Conditions: mixed-gender human liver microsomes, 1 mg microsomal protein/mL, initial concentration 10 μM, 60 minutes at 37° C.; WO 2006/005484-substance 7 = 100%
Experimental: Subcellular fractions of different tissues can be prepared easily by ultracentrifugation. Most commonly these are prepared from the liver of animals and human donors to gain information about the potential hepatic clearance of compounds (first-pass elimination of drugs). Human or animal (e.g. dog, mouse, rat) subcellular fraction like liver microsomes, or possibly the fraction called S9 have therefore become a very commonly and widely used as an in vitro model to investigate mainly cytochrome P450 dependent phase I (but also phase II) metabolism that takes place in the liver.
In order to reflect the standard proportion of the enzymes in human and animal livers, liver microsomes are usually pooled from a number of […] of the same sex (or mixed-gender). By supplementing the liver microsomes with relevant cofactors and other components it is possible to investigate and distinguish between CYPs, flavin-containing monooxygenase (FMO) and UDP-glucuronosyltransferase (UGT) activities.
Selected compounds of the invention were tested for their stability in mixed-gender human liver microsomes and compared to pertinent prior art compounds.
Under the test conditions applied (1 mg microsomal protein/mL, initial concentration of 10 μM, and incubation for 60 minutes at 37° C.) the following normalized results were obtained.

Structure (SMILES)	Normalized microsomal stability [%]
CCC(C)[C@H](NC(=O)Cc1ccccc1F)C(=O)N[C@]1(C(=O)N[C@H](C(=O)Nc2ccc(OC)c(O)c2)C(C)CC)CCc2[nH]c3c(C(F)(F)F)cccc3c2C1 (stereo partly drawn) [Compound 69, (R)-3-{(S)-2-[2-(2-Fluoro-phenyl)-acetylamino]-3-methyl-pentanoylamino}-8-trifluoromethyl-2,3,4,9-tetrahydro-1H-carbazole-3-carboxylic acid [(S)-1-(3-hydroxy-4-methoxy-phenylcarbamoyl)-2-methyl-butyl]-amide]	1041
CCC(C)[C@H](NC(=O)Cc1ccccc1F)C(=O)N[C@]1(C(=O)N[C@H](C(=S)NCCCn2ccnc2)C(C)CC)CCc2[nH]c3c(C(F)(F)F)cccc3c2C1 (stereo partly drawn) [Compound 74, (R)-3-{(S)-2-[2-(2-Fluoro-phenyl)-acetylamino]-3-methyl-pentanoylamino}-8-trifluoromethyl-2,3,4,9-tetrahydro-1H-carbazole-3-carboxylic acid [(S)-1-(3-imidazol-1-yl-propylthiocarbamoyl)-2-methyl-butyl]-amide]	1889
CCC(C)[C@H](NC(=O)Cc1ccccc1F)C(=O)N[C@]1(C(=O)N[C@H](C(=O)NC2CCC(O)CC2)C(C)CC)CCc2[nH]c3c(C(F)(F)F)cccc3c2C1 (stereo partly drawn) [Compound 73, (R)-3-{(S)-2-[2-(2-Fluoro-phenyl)-acetylamino]-3-methyl-pentanoylamino}-8-trifluoromethyl-2,3,4,9-tetrahydro-1H-carbazole-3-carboxylic acid [(S)-1-(4-hydroxy-cyclohexylcarbamoyl)-2-methyl-butyl]-amide]	624
CCNC(=O)Nc1nnc([C@@H](NC(=O)[C@]2(NC(=O)[C@@H](NC(=O)Cc3ccccc3F)C(C)CC)CCc3[nH]c4c(C(F)(F)F)cccc4c3C2)C(C)CC)o1 (stereo partly drawn) [Compound 31, (S)-3-{(S)-2-[2-(2-Fluoro-phenyl)-acetylamino]-3-methyl-pentanoylamino}-8-trifluoromethyl-2,3,4,9-tetrahydro-1H-carbazole-3-carboxylic acid {(S)-1-[5-(3-ethyl-ureido)-[1,3,4]oxadiazol-2-yl]-2-methyl-butyl}-amide]	276

Other lines, results leading:

Normalized microsomal stability [%]	Structure (SMILES)
1194	CC[C@H](C)[C@H](NC(=O)Cc1ccccc1F)C(=O)N[C@]1(C(=O)N[C@H](c2nc(C(=O)O)cs2)[C@@H](C)CC)CCc2[nH]c3c(C(F)(F)F)cccc3c2C1 [compound 256, 2-{(1S,2S)-1-[((R)-3-{(2S,3S)-2-[2-(2-Fluoro-phenyl)-acetylamino]-3-methyl-pentanoylamino}-8-trifluoromethyl-2,3,4,9-tetrahydro-1H-carbazole-3-carbonyl)-amino]-2-methyl-butyl}-thiazole-4-carboxylic acid]
1948	CCC(C)[C@H](NC(=O)Cc1cccnc1)C(=O)N[C@]1(C(=O)N[C@H](C(N)=S)C(C)CC)CCc2[nH]c3c(C(F)(F)F)cccc3c2C1 (stereo partly drawn) [compound 230, (R)-3-[(S)-3-Methyl-2-(2-pyridin-3-yl-acetylamino)-pentanoylamino]-8-trifluoromethyl-2,3,4,9-tetrahydro-1H-carbazole-3-carboxylic acid ((S)-2-methyl-1-thiocarbamoyl-butyl)-amide]
452	CCC(C)[C@H](NC(=O)Cc1ccccc1F)C(=O)N[C@]1(C(=O)N[C@H](C(=O)NN2CCOCC2)C(C)CC)CCc2[nH]c3c(C(F)(F)F)cccc3c2C1 (stereo partly drawn) [compound 219, (R)-3-{(S)-2-[2-(2-Fluoro-phenyl)-acetylamino]-3-methyl-pentanoylamino}-8-trifluoromethyl-2,3,4,9-tetrahydro-1H-carbazole-3-carboxylic acid [(S)-2-methyl-1-(morpholin-4-ylcarbamoyl)-butyl]-amide]
1328	CCC(C)[C@H](NC(=O)Cc1ccncc1)C(=O)N[C@]1(C(=O)N[C@H](C(N)=S)C(C)CC)CCc2[nH]c3c(C(F)(F)F)cccc3c2C1 (stereo partly drawn) [compound 236, (R)-3-[(S)-3-Methyl-2-(2-pyridin-4-yl-acetylamino)-pentanoylamino]-8-trifluoromethyl-2,3,4,9-tetrahydro-1H-carbazole-3-carboxylic acid ((S)-2-methyl-1-thiocarbamoyl-butyl)-amide]
285	CCNC(=S)NC[C@@H](NC(=O)[C@@]1(NC(=O)[C@@H](NC(=O)Cc2ccccc2F)C(C)CC)CCc2[nH]c3c(C(F)(F)F)cccc3c2C1)C(C)CC (stereo partly drawn) [compound 173, (R)-3-{(S)-2-[2-(2-Fluoro-phenyl)-acetylamino]-3-methyl-pentanoylamino}-8-trifluoromethyl-2,3,4,9-tetrahydro-1H-carbazole-3-carboxylic acid {(S)-1-[(3-ethyl-thioureido)-methyl]-2-methyl-butyl}-amide]
